One series relates to MCP-1. Description: Glycated albumin-stimulated endothelial cell production of cytokine MCP-1 (ELISA). Format: cell-based. Conditions: read-out: % of inhibition of proinflammatory cytokine MCP-1; for inhibition at 5 µM: concentration 5 μM. From the text:
(§1) The effectiveness of the compounds of the present invention in inhibiting glycated protein- and AGE-induced inflammation can be determined using the assays described herein and in U.S. Provisional Patent Application Ser. No. 60/259,306, which is incorporated by reference in herein its entirety. Such assays comprise measurement of the specific activity of biological components involved in a known cellular response. The assays provide a measurable response in which the activity of the compounds is determined. One aspect of the present invention comprises measurement of the effects of compounds on an inflammatory response by cells to the presence of a stimulating agent. Yet another aspect of the present invention includes an assay comprising endothelial cells that are stimulated by the addition of a glycated protein, the stimulating agent. The endothelial cells respond by producing specific cytokines. The amount of cytokines produced is determined by measurement protocols known to those skilled in the art. The compounds of the present invention are then added to the assay and the production of cytokines is measured. From the comparison of the assay without the compound with the assay with the compound, the biological effect of the compound can be determined. The compound may have an inhibitory effect, a stimulatory effect, or no effect at all. Compounds for treatment of inflammation include those that have an inhibitory effect.
Assays comprise endothelial cells that are stimulated in an inflammatory response by the presence of the glycated protein, glycated human serum albumin. Such endothelial cells produce cytokines. A method in accordance with the present invention comprises measurement of the amount of the cytokine IL-6, and another aspect of the present invention comprises measurement of the amount of the cytokine MCP-1. Preferably, although not required, the amount of cytokine produced is determined using immunological methods, such as ELISA assays. The methods of the present invention are not limited by the type of assay used to measure the amount of cytokine produced, and any methods known to those skilled in the art and later developed can be used to measure the amount of cytokines produced in response to the stimulating agent and to the compound having unknown activity.
Glycated albumin stimulates endothelial production of IL-6 and MCP-1. […] Because of the well established role of these cytokines in vascular diseases, screening for compounds that block AGE-induction of these cytokines provides a novel approach for identifying therapeutic agents that block AGE-induced inflammation in vivo.
Once the baseline response to the stimulating agent for the production of cytokines by the endothelial cells is established, thus comprising the control levels for the screening assay, the methods comprise addition of compounds having unknown activities. The effect of the compound on the baseline response is determined by comparing the amount of cytokine produced in the presence of the stimulating agent and the amount of cytokine produced in the presence of the stimulating agent and the compound of the present invention. In one method, compounds that have inhibitory effects on the inflammation of the cells in the presence of glycated albumin are then used as therapeutic agents. One or more compounds may be added to the screening assay. Combinations or mixtures of compounds can be added. Different amounts and formulations of the compounds are added to determine the effects on the screening assay. The screening assay also may be used to determine stimulatory compounds or compounds that have no effects in the assay.
On the technique in general: An ELISA detects its analyte on a solid surface through an enzyme-linked reagent.

In another series the test system is IL-6. Description: Glycated albumin-stimulated endothelial cell production of cytokine IL-6 (ELISA). Type of series: cell-based. Conditions: read-out: % of inhibition of proinflammatory cytokine IL-6.
From the text: as §1, with “Yet another aspect of the present invention includes an assay comprising endothelial cells that are stimulated by the addition of a glycated protein, the stimulating agent. The endothelial cells respond by producing specific cytokines.” left out, “The compound may have an inhibitory effect, a stimulatory effect, or no effect at all. Compounds for treatment of inflammation include those that have an inhibitory effect.” left out
Assays comprise endothelial cells that are stimulated in an inflammatory response by the presence of the glycated protein, glycated human serum albumin. […] Preferably, although not required, the amount of cytokine produced is determined using immunological methods, such as ELISA assays. […]

With `C/C(=C1/SC(=O)NC1=O)c1ccc(OCCOc2c(-c3ccc(F)c(F)c3)n(C)c3ccccc3c2=O)c(Cl)c1`, in the series with MCP-1, the inhibition (commonly the relative decrease from the control value, in per cent) at 5 µM was determined as 61%. With `C/C(=C1\SC(=O)NC1=O)c1ccc(OCCOc2c(-c3ccc(F)cc3)n(C)c3ccccc3c2=O)cc1` [drawing 117], the inhibition at 4.64 µM in the series on IL-6 (concentration 4.64 μM) worked out at 50%.

As for `C/C(=C1\SC(=O)NC1=O)c1ccc(OCCOc2c(-c3ccc(F)cc3)n(C)c3ccccc3c2=O)cc1` [drawing 118], in the series on MCP-1 (concentration 7.9 μM), the inhibition at 7.9 µM stood at 50%.

For `C/C(=C1\SC(=O)NC1=O)c1ccc(OCCOc2c(-c3ccc(Cl)cc3)n(C)c3ccccc3c2=O)cc1`, the inhibition at 5 µM with IL-6 (concentration 5 μM) is 49%. Turning to `CCn1c(-c2ccc(F)cc2)c(OCCOc2ccc(/C(C)=C3/SC(=O)NC3=O)cc2)c(=O)c2ccccc21`, in the series with MCP-1 (concentration 6.5 μM), the inhibition at 6.5 µM was found to be 50%. With `Cn1c(-c2ccc(Br)cc2)c(OCCOc2ccc(/C=C3/SC(=O)NC3=O)cc2)c(=O)c2ccccc21`, the inhibition at 5 µM in the series with MCP-1 was 44%. In the case of `C/C(=C1\SC(=O)NC1=O)c1ccc(OCCOc2c(-c3ccc(F)c(F)c3)n(C)c3ccccc3c2=O)c(F)c1`, the inhibition at 7 µM with MCP-1 (concentration 7 μM) amounted to 50%. Consider `C/C(=C1\SC(=O)NC1=O)c1ccc(OCCOc2c(-c3ccc(F)c(F)c3)n(C)c3ccccc3c2=O)cc1`, for which, in the series with MCP-1 (concentration 4.4 μM), the inhibition at 4.4 µM was found to be 50%.

As to `COc1cc(OC)c2c(=O)c(OCCOc3ccc(/C(C)=C4\SC(=O)NC4=O)cc3)c(-c3ccc(OC)c(OC)c3)oc2c1` [Example 1, 5-[-1-(4-{2-[2-(3,4-Dimethoxyphenyl)-5,7-dimethoxy-4-oxo-4h-3-chromenyloxy]ethoxy}phenyl)ethylidene]-1,3-thiazolane-2,4-dione], the melting point (commonly the temperature, or range, at which the solid turns liquid) fell in the range of 205 to 206 °C.

On to `CCCc1nn(C)c2c(=O)n(CCNc3ccc(/C(C)=C4\SC(=O)NC4=O)cc3)c(-c3ccc(OC)c(OC)c3)nc12` [Example 46, 5-[(E,Z)-1-(4-{2-[5-(3,4-Dimethoxyphenyl)-1-methyl-7-oxo-3-propyl-6,7-dihydro-1H-pyrazolo[4,3-d]pyrimidin-6-yl]ethylamino}phenyl)ethylidene]1,3-thiazolane-2,4-dione], for which the melting point is 215 to 218 °C.

(Values after patent US7456288B2, “Heterocyclic compounds and methods of making and using thereof” (Reddy US Therapeutics, Inc., priority 2003, dated 2008).)
